In patent US12593845B2 (priority 2019, dated 2026):

What was measured:
[1] = system: apple scab pathogen (Venturia inaequalis); test: Apple scab control test; assay type: in vivo; settings: 336 h, 125 ppm drug solution sprayed onto apple seedlings (Orin), lesion area ratio 2 weeks after inoculation
Description: (§1) 5 parts by weight of the dihydropyrimidine compound of the present invention, 93.5 parts by weight of N,N-dimethylformamide, and 1.5 parts by weight of polyoxyethylene sorbitan monolaurate (TWEEN® 20) were mixed and dissolved to obtain an emulsion (I) including 5% of an active ingredient.
(§2) The control value was calculated by the following expression. Control value (%)=100−{lesion area ratio in treated group/lesion area ratio in untreated group}×100 [Expression 1]
Water was added to the emulsion (I) such that the concentration of the dihydropyrimidine compound reached 125 ppm to dissolve the emulsion, and a drug solution was obtained. Subsequently, the drug solution was sprayed onto apple seedlings (variety: “Orin”, leaf stage: 3 to 4) cultivated in seedling pots. After air drying, the seedlings were inoculated with conidiospores of an apple scab pathogen (Venturia inaequalis) (treated group). As a control, apple seedlings that were not sprayed with the drug solution were inoculated in the same manner (untreated group). The seedlings were left to stand in a humidified room at 20° C. using a 12 hour light/dark cycle.
On the day 2 weeks after the inoculation, the leaves of the apple seedlings were visually observed to determine the lesion area ratio, and the control value was calculated.

[2] = system: wheat powdery mildew pathogen (Erysiphe graminis f. sp. tritici); test: Wheat powdery mildew control test; assay type: in vivo; settings: Blumeria graminis, 144 h; 125 ppm drug solution sprayed onto wheat seedlings (Chihoku); lesion area ratio 6 days after inoculation
Description: as §1, §2
Water was added to the emulsion (I) such that the concentration of the dihydropyrimidine compound reached 125 ppm to dissolve the emulsion, and a drug solution was obtained. Subsequently, the drug solution was sprayed onto wheat seedlings (variety: “Chihoku”, leaf stage: 1 to 2) cultivated in seedling pots. After air drying, conidiospores of a wheat powdery mildew pathogen (Erysiphe graminis f. sp. tritici) were sprinkled thereon for inoculation (treated group). As a control, wheat seedlings that were not sprayed with the drug solution were inoculated in the same manner as described above (untreated group). The seedlings were left to stand in a greenhouse at 20° C.
On the 6 days after the inoculation, the leaves of the wheat seedlings were visually observed to determine the lesion area ratio, and the control value was calculated.

Aspergillus niger = test: Antimicrobial test against Aspergillus niger; assay type: cell-based; settings: 96 h, Vogel medium, 25° C., 4 days in the dark, turbidity at 405 nm, read-out: growth inhibition rate
Description: Spores of Aspergillus niger were added to and dispersed in a Vogel medium, and a dihydropyrimidine compound dissolved in dimethyl sulfoxide was added and mixed thereto at 25 ppm. The resulting solution was dispensed onto a 96-well microplate and cultivated in the dark at 25° C. for 4 days.
After the cultivation, the turbidity at a wavelength of 405 nm was measured by a microplate reader and compared with that in the untreated case to determine the growth inhibition of Aspergillus niger (%) was determined.

[3] = system: wheat powdery mildew pathogen (Erysiphe graminis f. sp. tritici); test: Wheat powdery mildew seed treatment test; assay type: in vivo; settings: Blumeria graminis, 168 h; seed treatment 100 g/100 kg wheat seeds (Chihoku); inoculation after 8 to 10 days; lesion area ratio 7 days after inoculation
Description: as §1, §2
The emulsion (I) was used to treat seeds such that (weight of dihydropyrimidine compound)/(weight of seeds) reached 100 g/100 kg based on the wheat seeds (variety: “Chihoku”). These seeds were disseminated in pots, and after 8 to 10 days, conidiospores of a wheat powdery mildew pathogen (Erysiphe graminis f. sp. tritici) were sprinkled thereon for inoculation (treated group). As a control, wheat seedlings that were not treated with the drug were inoculated in the same manner as described above (untreated group). The seedlings were left to stand in a greenhouse at 20° C.
(§3) On the 7 days after the inoculation, the leaves of the wheat seedlings were visually observed to determine the lesion area ratio, and the control value was calculated.

[4] = system: wheat powdery mildew pathogen (Erysiphe graminis f. sp. tritici); test: Wheat powdery mildew soil irrigation treatment test; assay type: in vivo; settings: Blumeria graminis, 168 h; soil irrigation with 10 ml of 100 ppm drug solution per pot, wheat (Chihoku); inoculation after 8 to 10 days; lesion area ratio 7 days after inoculation
Description: as §1, §2
Pots (5.5 cm×5.5 cm) in which wheat seeds (variety: “Chihoku”) were disseminated were irrigated with 10 ml of a drug solution prepared by adding water to the emulsion (I) so as to have a concentration of the dihydropyrimidine compound of 100 ppm. After 8 to 10 days, conidiospores of a wheat powdery mildew pathogen (Erysiphe graminis f. sp. tritici) were sprinkled thereon for inoculation (treated group). As a control, wheat seedlings that were not treated with the drug were inoculated in the same manner as described above (untreated group). The seedlings were left to stand in a greenhouse at 20° C.
as §3

CCO/N=C(\C)c1cn(CC(OCCC#N)c2cc(F)ccc2OC)c(=O)n(CCNC(=O)C(C)C)c1=O (centres unmarked) [A-38, N-(2-(3-(2-(2-cyanoethoxy)-2-(5-fluoro-2-methoxyphenyl)ethyl)-5-(1-(ethoxyimino)ethyl)-2,6-dioxo-3,6-dihydropyrimidin-1(2H)-yl)ethyl)isobutyramide]
pest or weed control at 125 ppm [1]: ≥ 75% | pest or weed control at 125 ppm [2]: ≥ 75% | inhibition at 25 ppm (Aspergillus niger): ≥ 50%

CCO/N=C(\C)c1cn(CC(O)c2cc(F)ccc2OC)c(=O)n(C[C@H](C)NC(=O)C(C)C)c1=O (some centres unmarked) [A-42]
pest or weed control at 125 ppm [1]: ≥ 75% | pest or weed control at 125 ppm [2]: ≥ 75% | inhibition at 25 ppm (Aspergillus niger): ≥ 50%

CCOc1ccccc1C(O)Cn1cc(/C(C)=N/OC(C)C)c(=O)n(C[C@H](C)NC(=O)C(C)C)c1=O (some centres unmarked) [A-51]
pest or weed control at 125 ppm [1]: ≥ 75% | pest or weed control at 125 ppm [2]: ≥ 75% | inhibition at 25 ppm (Aspergillus niger): ≥ 50%

COc1ccc(F)cc1C(O)Cn1cc(C=NOC(C)C)c(=O)n(C(C)CNC(=O)C(C)C)c1=O (centres unmarked) [A-79]
pest or weed control at 125 ppm [1]: ≥ 75% | pest or weed control at 125 ppm [2]: ≥ 75% | inhibition at 25 ppm (Aspergillus niger): ≥ 50%

COc1ccc(F)cc1C(O)Cn1cc(C=NOC(C)C)c(=O)n(C(C)C(=O)N2CCCCC2)c1=O (centres unmarked) [A-90]
pest or weed control at 125 ppm [1]: ≥ 75% | pest or weed control at 125 ppm [2]: ≥ 75% | inhibition at 25 ppm (Aspergillus niger): ≥ 50%

CCO/N=C(\C)c1cn(CC(OC)c2cc(F)ccc2OC)c(=O)n(CCNC(=O)C(C)C)c1=O (centres unmarked) [A-96]
pest or weed control at 125 ppm [1]: ≥ 75% | pest or weed control at 125 ppm [2]: ≥ 75% | inhibition at 25 ppm (Aspergillus niger): ≥ 50%

CCO/N=C(\C)c1cn(CC(OC)c2cc(F)ccc2OC)c(=O)n(CCN(C)C(=O)C(C)C)c1=O (centres unmarked) [A-97]
pest or weed control at 125 ppm [1]: ≥ 75% | pest or weed control at 125 ppm [2]: ≥ 75% | inhibition at 25 ppm (Aspergillus niger): ≥ 50%

COc1ccc(F)cc1C(Cn1cc(/C(C)=N/OC(C)C)c(=O)n(CCNC(=O)C(C)C)c1=O)OCCC#N (centres unmarked) [A-101]
pest or weed control at 125 ppm [1]: ≥ 75% | pest or weed control at 125 ppm [2]: ≥ 75% | inhibition at 25 ppm (Aspergillus niger): ≥ 50%

COc1ccc(F)cc1C(O)Cn1cc(/C(C)=N/OC(C)C)c(=O)n(CCNC(=O)C(C)C)c1=O (centres unmarked) [A-102]
pest or weed control at 125 ppm [1]: ≥ 75% | pest or weed control at 125 ppm [2]: ≥ 75% | inhibition at 25 ppm (Aspergillus niger): ≥ 50%

CC[C@@H](Cn1c(=O)c(/C(C)=N/OC(C)C)cn(CC(O)c2cc(F)ccc2OC)c1=O)NC(=O)N(C)C (some centres unmarked) [C-54]
pest or weed control at 100 g/100 kg seed [3]: ≥ 75% | inhibition at 25 ppm (Aspergillus niger): ≥ 50%

CCC(=O)N[C@@H](CC)Cn1c(=O)c(/C(C)=N/OC(C)C)cn(CC(O)c2cc(F)ccc2OC)c1=O (some centres unmarked) [C-56]
pest or weed control at 100 g/100 kg seed [3]: ≥ 75% | inhibition at 25 ppm (Aspergillus niger): ≥ 50%

CCN(CC)C(=O)N[C@H](Cn1c(=O)c(/C(C)=N/OC(C)C)cn(CC(O)c2cc(F)ccc2OC)c1=O)C(C)C (some centres unmarked) [C-67]
pest or weed control at 100 ppm [4]: ≥ 75%

COc1ccc(F)cc1C(O)Cn1cc(/C(C)=N/OC(C)C)c(=O)n(C[C@@H](NC(=O)C(C)=O)C(C)C)c1=O (some centres unmarked) [C-73]
pest or weed control at 100 ppm [4]: ≥ 75% | pest or weed control at 100 g/100 kg seed [3]: ≥ 75% | inhibition at 25 ppm (Aspergillus niger): ≥ 50%

COCC(=O)N[C@H](Cn1c(=O)c(/C(C)=N/OC(C)C)cn(CC(O)c2cc(F)ccc2OC)c1=O)C(C)C (some centres unmarked) [C-83]
pest or weed control at 100 ppm [4]: ≥ 75% | pest or weed control at 100 g/100 kg seed [3]: ≥ 75% | inhibition at 25 ppm (Aspergillus niger): ≥ 50%

COc1ccccc1C(O)Cn1cc(/C(C)=N/OC(C)C)c(=O)n(C[C@@H](NC(=O)c2ccccc2)C(C)C)c1=O (some centres unmarked) [C-85]
pest or weed control at 100 g/100 kg seed [3]: ≥ 75%

CCN(C)C(=O)N[C@H](Cn1c(=O)c(/C(C)=N/OC(C)C)cn(CC(O)c2cc(F)ccc2OC)c1=O)C(C)C (some centres unmarked) [C-89]
pest or weed control at 100 g/100 kg seed [3]: ≥ 75% | inhibition at 25 ppm (Aspergillus niger): ≥ 50%

CC[C@@H](Cn1c(=O)c(/C(C)=N/OC(C)C)cn(CC(O)c2ccccc2OC)c1=O)NC(=O)C(C)C (some centres unmarked) [C-93]
pest or weed control at 100 ppm [4]: ≥ 75% | pest or weed control at 100 g/100 kg seed [3]: ≥ 75% | inhibition at 25 ppm (Aspergillus niger): ≥ 50%

CCCC(=O)N[C@H](Cn1c(=O)c(/C(C)=N/OC(C)C)cn(CC(O)c2ccccc2OC)c1=O)C(C)C (some centres unmarked) [C-95]
pest or weed control at 100 ppm [4]: ≥ 75% | pest or weed control at 100 g/100 kg seed [3]: ≥ 75% | inhibition at 25 ppm (Aspergillus niger): ≥ 50%

COc1ccccc1C(O)Cn1cc(/C(C)=N/OC(C)C)c(=O)n(C[C@@H](NC(=O)CC(C)C)C(C)C)c1=O (some centres unmarked) [C-97]
pest or weed control at 100 g/100 kg seed [3]: ≥ 75%

COc1ccccc1C(O)Cn1cc(/C(C)=N/OC(C)C)c(=O)n(C[C@@H](NC(=O)C2CC2)C(C)C)c1=O (some centres unmarked) [C-99]
pest or weed control at 100 ppm [4]: ≥ 75% | pest or weed control at 100 g/100 kg seed [3]: ≥ 75% | inhibition at 25 ppm (Aspergillus niger): ≥ 50%

C=C(C)C(=O)N[C@H](Cn1c(=O)c(/C(C)=N/OC(C)C)cn(CC(O)c2cc(F)ccc2OC)c1=O)C(C)C (some centres unmarked) [C-101]
pest or weed control at 100 ppm [4]: ≥ 75% | pest or weed control at 100 g/100 kg seed [3]: ≥ 75% | inhibition at 25 ppm (Aspergillus niger): ≥ 50%

CCO/N=C(\C)c1cn(CC(O)c2cc(F)ccc2OC)c(=O)n(C[C@@H](NC(=O)C(C)C)C(C)C)c1=O (some centres unmarked) [C-107]
pest or weed control at 100 ppm [4]: ≥ 75% | pest or weed control at 100 g/100 kg seed [3]: ≥ 75% | inhibition at 25 ppm (Aspergillus niger): ≥ 50%

COc1ccc(F)cc1C(O)Cn1cc(/C(C)=N/OC(C)C)c(=O)n(C[C@@H](NC(=O)C(C)(C)C)C(C)C)c1=O (some centres unmarked) [C-112]
pest or weed control at 100 g/100 kg seed [3]: ≥ 75% | inhibition at 25 ppm (Aspergillus niger): ≥ 50%

CCCC(=O)N[C@H](Cn1c(=O)c(/C(C)=N/OC(C)C)cn(CC(O)c2cc(F)ccc2OC)c1=O)C(C)C (some centres unmarked) [C-115]
pest or weed control at 100 g/100 kg seed [3]: ≥ 75% | inhibition at 25 ppm (Aspergillus niger): ≥ 50%

CCC(=O)N[C@H](Cn1c(=O)c(/C(C)=N/OC(C)C)cn(CC(O)c2cc(F)ccc2OC)c1=O)C(C)C (some centres unmarked) [C-117]
pest or weed control at 100 ppm [4]: ≥ 75% | pest or weed control at 100 g/100 kg seed [3]: ≥ 75% | inhibition at 25 ppm (Aspergillus niger): ≥ 50%

CCCC(=O)N[C@@H](C)Cn1c(=O)c(/C(C)=N/OC(C)C)cn(CC(O)c2cc(F)ccc2OC)c1=O (some centres unmarked) [C-135]
pest or weed control at 100 g/100 kg seed [3]: ≥ 75% | inhibition at 25 ppm (Aspergillus niger): ≥ 50%

COc1ccc(F)cc1C(O)Cn1cc(/C(C)=N/OC(C)C)c(=O)n(C[C@@H](NC(=O)C(C)C)C(C)(C)C)c1=O (some centres unmarked) [C-148]
pest or weed control at 100 ppm [4]: ≥ 75% | pest or weed control at 100 g/100 kg seed [3]: ≥ 75% | inhibition at 25 ppm (Aspergillus niger): ≥ 50%

COc1ccc(F)cc1C(O)Cn1cc(/C(C)=N/OC(C)C)c(=O)n(C[C@H](CCSC)NC(=O)C(C)C)c1=O (some centres unmarked) [C-176]
pest or weed control at 100 g/100 kg seed [3]: ≥ 75% | inhibition at 25 ppm (Aspergillus niger): ≥ 50%

COc1cc(F)c(F)cc1C(O)Cn1cc(/C(C)=N/OC(C)C)c(=O)n(C[C@H](C)NC(=O)C(C)C)c1=O (some centres unmarked) [C-182]
pest or weed control at 100 ppm [4]: ≥ 75% | inhibition at 25 ppm (Aspergillus niger): ≥ 50%

COc1ccc(F)cc1C(O)Cn1cc(/C(C)=N/OC(C)C)c(=O)n(C[C@H](C)NC(=O)NC(C)C)c1=O (some centres unmarked) [C-191]
pest or weed control at 100 ppm [4]: ≥ 75%
